Results: patent publication US20240216357A1 (SICHUAN HUIYU PHARMACEUTICAL CO., LTD., priority 2021, published 2024)
Structures can show the parent of a compound that is named as a salt. Where two headings read alike, the source gives them in different places.

What was measured:
[1] = test system: NCI-H1417 cells; assay: In vitro cell proliferation detection (CellTiter-Glo, 7 days); assay type: cell-based; conditions: Homo sapiens, 168 h; NCI-H1417 cells, 7 days, CellTiter-Glo; read-out: NCI-H1417 proliferation inhibition IC50
[2] = target: LSD1 (Homo sapiens (Human), UniProt O60341); assay: LSD1 enzyme activity detection (HTRF); assay type: biochemical
[3] = HTRF, H3K4me1 substrate, read-out: Inhibition of enzymatic activity of LSD1 IC50

Structure (SMILES) | IC50 [1] | IC50 [2, 3] | IC50 [2]
Cc1ccc(-c2sc(CN3C4CCC3CC(N)C4)cc2-c2ccc(C#N)c(F)c2)c(F)c1 (stereo not drawn) [Example 7, 4-(5-((3-amino-8-azabicyclo[3.2.1]octane-8-yl)methyl)-2-(2-fluoro-4-methylphenyl)thiophen-3-yl)-2-fluorobenzonitrile trifluoroacetate] | 46.4 nM | – | 0.4 ± 0.29 nM
Cc1ccc(-c2c(-c3ccc(C#N)c(F)c3)nc(N3CC4CCC(C3)C4N)n3ccnc23)cc1O (stereo not drawn) [Example 159, 4-(5-(8-amino-3-azabicyclo[3. 2.1]octane-3-yl)-8-(3-hydroxy-4-methylphenyl)imidazolo[1,2-c]pyrimidin-7-yl)-2-fluorobenzonitrile] | 5.82 nM | 2.8 ± 1 nM | –
CS(=O)(=O)N1CCN(C(=O)c2cc(CN[C@@H]3C[C@H]3c3ccc(F)cc3)nc(-c3ccc(F)c(O)c3)n2)CC1 [Example 238, (2-(4-fluoro-3-hydroxy phenyl)-6-(((1R,2S)-2-(4-fluorophenyl)cyclo-propyl)amino)methyl) pyrimidin-4-yl)(4-(methyl-sulfonyl)piperazin-1-yl) methanone hydrochloride] | 5.31 nM | 98 ± 1 nM | –
N#Cc1ccc(-c2nc(CCCN[C@@H]3C[C@H]3c3ccc(F)cc3)cc(C(=O)N3CCC(F)(F)CC3)n2)cc1 [Example 258, 4-(4-(4,4-difluoropiperidine-1-carbonyl)-6-(3-(((1R,2S)-2-(4-fluorophenyl)cyclopropyl)amino)propyl)pyrimidin-2-yl)benzonitrile hydrochloride] | 89.7 nM | 232 nM | –
Cc1ccc(-c2c(-c3ccc(C#N)cc3)cc3c(N4CCC(N)C4)nccn23)cc1 (stereo not drawn) [Example 192, 4-(1-(3-aminopyrrolidin-1-yl)-6-(p-tolyl)pyrrolo [1,2-a]pyrazine-7-yl) benzonitrile hydrochloride] | 81 nM | 10.6 nM | –
CN(CCCN)c1nc(-c2ccc(C#N)c(F)c2)c(-c2ccc(OC(F)(F)F)c(O)c2)c2nccn12 [Example 153, 4-(5-((3-aminopropyl) (methyl)amino)-8-(3-hydroxy-4-(trifluoromethoxy)phenyl)imidazolo [1,2-c]pyrimidin-7-yl)-2-fluorobenzonitrile] | 31.6 nM | 5.2 ± 0.5 nM | –
COc1ccc(-c2c(-c3ccc(C#N)c(F)c3)nc(N(C)CCCN)n3ccnc23)cc1O [Example 144, 4-(5-((3-aminopropyl) (methyl)amino)-8-(3-hydroxy-4-methoxyphenyl)imidazolo[1,2-c]pyrimidin-7-yl)-2-fluorobenzonitrile] | 18.2 nM | 1.6 ± 0.2 nM | –
Cn1ccc2cc(F)c(-c3c(-c4ccc(C#N)c(F)c4)nc(N4C5CCC4CC(N)C5)n4ccnc34)cc21 (stereo not drawn) [Example 174, 4-(5-(3-amino-8-azabicyclo[3.2.1]octane-8-yl)-8-(5-fluoro-1-methyl-1H-indole-6-yl)imidazolo [1,2-c]pyrimidin-7-yl)-2-fluoro benzonitrile] | 14.4 nM | 13.2 nM | –
Cc1ccc(-c2c(O)cc(N(C)CCCN)nc2-c2ccc(C#N)c(F)c2)cc1O [Example 63, 4-(6-((3-aminopropyl)(methyl)amino)-4-hydroxy-3-(3-hydroxy-4-methylphenyl)pyridin-2-yl)-2-fluorobenzonitrile hydrochloride] | 192 nM | 5.1 ± 0.4 nM | –
N#Cc1ccc(-c2nc(N3C4CCC3CC(N)C4)n3ccnc3c2-c2ccc(F)c(O)c2)cc1F (stereo not drawn) [Example 157, 4-(5-(3-amino-8-azabicyclo [3.2.1]octane-8-yl)-8-(4-fluoro-3-hydroxyphenyl)imidazolo [1,2-c]pyrimidin-7-yl)-2-fluorobenzonitrile hydrochloride] | 2.05 nM | 0.3 ± 0.3 nM | –
O=C(NC1CCOCC1)c1cc(CN[C@@H]2C[C@H]2c2ccc(F)cc2)nc(-c2ccccc2)n1 [Example 237] | 28.3 nM | 423 ± 23 nM | –
COc1ccc(-c2c(-c3ccc(C#N)c(F)c3)nc(N3CC4CC(C3)C4N)n3ccnc23)cc1O (stereo not drawn) [Example 163, 4-(5-(6-amino-3-azabicyclo[3.1.1]heptan-3-yl)-8-(3-hydroxy-4-methoxyphenyl)imidazolo[1,2-c]pyrimidin-7-yl)-2-fluorobenzonitrile hydrochloride] | 9.11 nM | 5.6 ± 1.6 nM | –
N#Cc1ccc(-c2cc(C(=O)N3C4CCC3CC(N)C4)sc2-c2ccncn2)cc1F (stereo not drawn) [Example 202, 4-(5-(3-amino-8-azabicyclo [3.2.1]octane-8-carbonyl)-2-(pyrimidin-4-yl)thiophen-3-yl)-2-fluoro-benzonitrile hydrochloride] | > 1000 nM | 77.1 nM | –

Further lines, with some results ahead:

IC50 [1] | IC50 [2, 3] | Structure (SMILES) | IC50 [2]
21.2 nM | 35.2 nM | COc1ccc(-c2c(O)cc(N3CCC(N)CC3)nc2-c2ccc(C#N)c(F)c2)c(F)c1 [Example 36, 4-(6-(4-aminopiperidin-1-yl)-3-(2-fluoro-4-methoxyphenyl)-4-hydroxypyridin-2-yl)-2-fluorobenzonitrile hydrochloride] | –
8.37 nM | 3.9 ± 0.2 nM | COc1ccc(-c2c(-c3ccc(C#N)c(F)c3)nc(N3CC4CCC(C3)C4N)n3ccnc23)cc1O (stereo not drawn) [Example 161, 4-(5-(8-amino-3-azabicyclo[3. 2.1]octane-3-yl)-8-(3-hydroxy-4-methoxyphenyl)imidazolo[1,2-c]pyrimidin-7-yl)-2-fluorobenzonitrile hydrochloride] | –
11.7 nM | 59.9 nM | COc1ccc(-c2c(-c3ccc(C#N)c(F)c3)nc(N3CC4CCC(C3)C4N)n3ccnc23)cc1F (stereo not drawn) [Example 162, 4-(5-(8-amino-3-azabicyclo [3.2.1]octyl-3-yl)-8-(3-fluoro-4-methoxyphenyl)imidazolo[1,2-c]pyrimidin-7-yl)-2-fluorobenzonitrile hydrochloride] | –
0.959 nM | 0.5 ± 0.1 nM | N#Cc1ccc(-c2nc(N3CCC(N)CC3)n3ccnc3c2-c2ccc(C(F)(F)F)c(O)c2)cc1F [Example 154, 4-(5-(4-aminopiperidin-1-yl)-8-(3-hydroxy-4-(trifluoromethyl)phenyl)imidazolo [1,2-c]pyrimidin-7-yl)-2-fluorobenzonitrile carboxylate] | –
30.2 nM | 8.68 ± 0.76 nM | COc1ccc(C#Cc2c(-c3ccc(C#N)c(F)c3)nc(N3CCC(N)CC3)n3ccnc23)cc1F [Example 122, 4-(5-(4-aminopiperidin-1-yl)-8-(3-fluoro-4-methoxyphenyl)ethynyl)imidazolo [1,2-c]pyrimidin-7-yl)-2-fluorobenzonitrile hydrochloride] | –
0.63 nM | 0.147 nM | CC(C)(O)COc1ccc(-c2cnc(N3CCC(N)CC3)c(C#N)c2-c2ccc(C#N)c(F)c2)cc1O [Example 86, hydrochloride] | –
9.77 nM | 0.5 ± 0.4 nM | COc1ccc(-c2c(-c3ccc(C#N)c(F)c3)nc(N3CCC(N)CC3)c3nc[nH]c23)cc1O [Example 271, 4-(4-(4-aminopiperidin-1-yl)-7-(3-hydroxy-4-methoxyphenyl)-1H-imidazolo[4,5-c]pyridin-6-yl)-2-fluorobenzonitrile hydrochloride] | –
11.8 nM | 3 ± 0.6 nM | COc1ccc(-c2c(OC)cc(N3CCNCC3)nc2-c2ccc(C#N)c(F)c2)cc1O [Example 96, 2-fluoro-4-(3-(3-hydroxy-4-methoxyphenyl)-4-methoxy-6-(piperazinyl)pyridin-2-yl)benzonitrile hydrochloride] | –
